Experimental data from patent US10604555B2, “GIP derivatives and uses thereof” (priority 2018, dated 2020).
pEC50: −log10 of the molar value. *1 amine or outer side, *2 acyl side, *3 side chain or, on linkers, in order; H or OH if unused. Where no end group is shown, it is not given here. Side-chain parts run from the residue outwards. [ ]: non-standard residue; d: D form. The star is where a group is joined. C18 diacid = O=C(O)CCCCCCCCCCCCCCCCC(=O)*; γGlu = O=C(O)[C@H](CCC(=O)[*:2])N[*:1]; Nle = CCCC[C@H](N)C(=O)O; AEEA = NCCOCCOCC(=O)O; Aib = CC(C)(N)C(=O)O

What was measured:
Assay type in all cases: cell-based
Conditions in all cases: 0.2% HSA
[1] = target: T1, human glucagon receptor (Homo sapiens, UniProt P47871); assay: In vitro potency (CRE luciferase; whole cells), BHK CRE luc2P hGCGR
T1 construct: expressed in transfected cells; host or cells: BHK (parent line BHKTS13), BHK CRE luc2P hGCGR clone #18
T1 sequence (P47871 26-477): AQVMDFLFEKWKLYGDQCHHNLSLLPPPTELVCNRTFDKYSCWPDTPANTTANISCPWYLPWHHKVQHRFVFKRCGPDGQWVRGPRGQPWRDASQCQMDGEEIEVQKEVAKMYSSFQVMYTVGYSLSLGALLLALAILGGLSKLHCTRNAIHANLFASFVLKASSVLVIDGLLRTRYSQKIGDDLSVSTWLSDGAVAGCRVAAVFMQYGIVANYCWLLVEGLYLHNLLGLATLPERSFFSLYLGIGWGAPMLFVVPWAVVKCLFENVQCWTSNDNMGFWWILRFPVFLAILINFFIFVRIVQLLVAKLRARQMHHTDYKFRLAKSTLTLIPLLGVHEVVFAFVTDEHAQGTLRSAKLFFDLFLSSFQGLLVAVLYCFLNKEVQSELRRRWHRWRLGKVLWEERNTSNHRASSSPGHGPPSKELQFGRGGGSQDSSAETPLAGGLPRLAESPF
Description: (§1) In Vitro Potency (CRE Luciferase; Whole Cells)
(§2) The in vitro potency is the measure of human GIP, GLP-1 or glucagon receptor activation, respectively, in a whole cell assay.
(§3) In vitro potency was determined by measuring the response of the human GIP, GLP-1 or glucagon receptor in a reporter gene assay in individual cell lines. […] When the respective receptor is activated it results in the production of cAMP, which in turn results in the luciferase protein being expressed. When assay incubation is completed the luciferase substrate (luciferin) is added and the enzyme converts luciferin to oxyluciferin to produce bioluminescence. The luminescence is measured as the readout for the assay.
(§4) The cells were derived from a clone containing the CRE luciferase element and were established by further transfection with the respective receptor to obtain the current clone.
(§5) The cells were cultured at 5% CO2 in Cell Culture Medium. They were aliquoted and stored in liquid nitrogen. The cells were kept in passage and were seeded out the day before each assay.
(§6) The Assay Buffer consisted of 1% ovalbumin and 0.1% Pluronic F-68 in Assay Medium with the addition of human serum albumin at twice the indicated concentrations.
(§7) 1) Cells were plated at 5000 cells/well and incubated overnight.
(§8) 2) Cells were washed three times in PBS.
(§9) 3) Assay Medium (50 μl aliquot) with or without serum albumin was added to each well in the assay plate.
(§10) 4) Stocks of the test compounds and reference compounds were diluted to a concentration of 0.2 μM in Assay Buffer. […] 8) The cells were washed three times with PBS plus some liquid in each well. 9) A 100 μl aliquot of steadylite plus reagent was added to each well of the assay plate (reagent was light sensitive). 10) Each assay plate was covered with aluminum foil to protect it from light and shaken for 30 min at room temperature. 11) Each assay plate was read in a microtiter plate reader. Calculations and Results
The data from the microtiter plate reader was transferred to GraphPad Prism software. […]
A minimum of two replicates was measured for each sample. […]

[2] = target: T2, human GIP receptor (Homo sapiens, UniProt P48546); assay: In vitro potency (CRE luciferase; whole cells), BHK CRE luc2P hGIPR
T2 construct: expressed in transfected cells; host or cells: BHK (parent line BHKTS13), BHK CRE luc2P hGIPR clone #5
T2 sequence (P48546 22-466): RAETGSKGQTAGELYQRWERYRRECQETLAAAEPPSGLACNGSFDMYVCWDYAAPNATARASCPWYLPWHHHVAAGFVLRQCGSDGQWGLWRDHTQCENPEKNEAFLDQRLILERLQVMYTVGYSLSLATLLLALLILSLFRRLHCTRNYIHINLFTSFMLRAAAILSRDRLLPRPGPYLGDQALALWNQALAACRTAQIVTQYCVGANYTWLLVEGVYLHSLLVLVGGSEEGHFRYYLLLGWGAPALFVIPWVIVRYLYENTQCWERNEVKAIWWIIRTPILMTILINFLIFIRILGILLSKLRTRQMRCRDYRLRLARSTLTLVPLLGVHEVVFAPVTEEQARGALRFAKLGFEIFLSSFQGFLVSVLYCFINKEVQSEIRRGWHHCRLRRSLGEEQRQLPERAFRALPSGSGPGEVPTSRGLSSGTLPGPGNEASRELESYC
Procedure, shortened: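 BHK clones carrying a CRE luciferase element, each transfected with one human receptor, were seeded at 5000 cells/well overnight. Compounds were diluted in buffer with 1% ovalbumin and 0.1% Pluronic F-68, with or without human serum albumin. Luminescence was read after steadylite plus; non-linear log(agonist)-response fit, averaged over at least two replicates.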

[3] = target: T3, human GLP-1 receptor (Homo sapiens, UniProt P43220); assay: In vitro potency (CRE luciferase; whole cells), BHK CRE luc2P hGLP-1R
T3 construct: expressed in transfected cells; host or cells: BHK (parent line BHKTS13), BHK CRE luc2P hGLP-1R clone #6
T3 sequence (P43220 24-463): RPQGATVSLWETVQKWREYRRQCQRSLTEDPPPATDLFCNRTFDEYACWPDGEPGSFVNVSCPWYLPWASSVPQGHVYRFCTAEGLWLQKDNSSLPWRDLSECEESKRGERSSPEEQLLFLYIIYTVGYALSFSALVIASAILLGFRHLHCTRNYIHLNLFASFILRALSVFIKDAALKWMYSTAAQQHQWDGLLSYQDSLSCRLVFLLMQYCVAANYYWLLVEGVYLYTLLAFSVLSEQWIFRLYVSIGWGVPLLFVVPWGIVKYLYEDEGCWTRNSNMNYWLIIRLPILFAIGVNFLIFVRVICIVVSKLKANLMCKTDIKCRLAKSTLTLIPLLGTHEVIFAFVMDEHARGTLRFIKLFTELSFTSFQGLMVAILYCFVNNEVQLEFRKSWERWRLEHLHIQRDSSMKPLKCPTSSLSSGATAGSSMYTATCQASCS
Description: as §1, §2, §3, §4, §5, §6, §7, §8, §9, §10
The data from the microtiter plate reader was transferred to GraphPad Prism software. The software performs a non-linear regression (log(agonist) vs response).
A minimum of two replicates was measured for each sample. The reported values are averages of the replicates.

| Molecule | pEC50 [1] | pEC50 [2] | pEC50 [3] |
| --- | --- | --- | --- |
| CCCC[C@H](NC(=O)[C@H](C)NC(=O)[C@@H](NC(=O)[C@H](CO)NC(=O)[C@H](Cc1ccc(O)cc1)NC(=O)[C@H](CC(=O)O)NC(=O)[C@H](CO)NC(=O)[C@@H](NC(=O)[C@H](Cc1ccccc1)NC(=O)[C@@H](NC(=O)CNC(=O)[C@H](CCC(=O)O)NC(=O)C(C)(C)NC(=O)[C@@H](N)Cc1ccc(O)cc1)[C@@H](C)O)[C@@H](C)CC)[C@@H](C)CC)C(=O)N[C@@H](CC(=O)O)C(=O)N[C@@H](CCCCN)C(=O)N[C@H](C(=O)N[C@@H](CCCNC(=N)N)C(=O)N[C@@H](CCC(N)=O)C(=O)N[C@@H](CCC(N)=O)C(=O)N[C@@H](CC(=O)O)C(=O)N[C@@H](Cc1ccccc1)C(=O)N[C@H](C(=O)N[C@@H](CCCCNC(=O)COCCOCCNC(=O)COCCOCCNC(=O)CC[C@H](NC(=O)CCCCCCCCCCCCCCCCC(=O)O)C(=O)O)C(=O)N[C@@H](Cc1c[nH]c2ccccc12)C(=O)N[C@@H](CC(C)C)C(=O)N[C@@H](CC(C)C)C(=O)N[C@@H](C)C(=O)N[C@@H](CCC(N)=O)C(=O)N[C@@H](CCCCN)C(=O)NCC(=O)N[C@@H](CCCCN)C(=O)N[C@@H](CCC(=O)O)C(=O)N[C@@H](CCC(=O)O)C(=O)N[C@@H](CC(=O)O)C(=O)N[C@@H](Cc1c[nH]c2ccccc12)C(=O)N[C@@H](CCCCN)C(=O)N[C@@H](Cc1c[nH]cn1)C(=O)N[C@@H](CC(N)=O)C(=O)N[C@H](C(=O)N[C@H](C(=O)N[C@@H](CCC(N)=O)C(=O)O)[C@@H](C)O)[C@@H](C)CC)C(C)C)[C@@H](C)CC [Compound 37, N{Epsilon-24}-[2-[2-[2-[[2-[2-[2-[[(4S)-4-carboxy-4-(17-carboxyheptadecanoylamino)butanoyl]amino]ethoxy]ethoxy]acetyl]amino]ethoxy]ethoxy]acetyl]-[Aib2,Nle14,Arg18,Lys24,Glu33,Glu34]-hGIP] | < 7.00 | 11.39 | < 7.00 |
| CCCC[C@H](NC(=O)[C@H](C)NC(=O)[C@@H](NC(=O)[C@H](CO)NC(=O)[C@H](Cc1ccc(O)cc1)NC(=O)[C@H](CC(=O)O)NC(=O)[C@H](CO)NC(=O)[C@@H](NC(=O)[C@H](Cc1ccccc1)NC(=O)[C@@H](NC(=O)CNC(=O)[C@H](CCC(=O)O)NC(=O)C(C)(C)NC(=O)[C@@H](N)Cc1ccc(O)cc1)[C@@H](C)O)[C@@H](C)CC)[C@@H](C)CC)C(=O)N[C@@H](CC(=O)O)C(=O)N[C@@H](CCCCN)C(=O)N[C@H](C(=O)N[C@@H](CCCNC(=N)N)C(=O)N[C@@H](CCC(N)=O)C(=O)N[C@@H](CCC(N)=O)C(=O)N[C@@H](CC(=O)O)C(=O)N[C@@H](Cc1ccccc1)C(=O)N[C@H](C(=O)N[C@@H](CCCCNC(=O)CC[C@H](NC(=O)CC[C@H](NC(=O)CC[C@H](NC(=O)CCCCCCCCCCCCCCCCC(=O)O)C(=O)O)C(=O)O)C(=O)O)C(=O)N[C@@H](Cc1c[nH]c2ccccc12)C(=O)N[C@@H](CC(C)C)C(=O)N[C@@H](CC(C)C)C(=O)N[C@@H](C)C(=O)N[C@@H](CCC(N)=O)C(=O)N[C@@H](CCCCN)C(=O)NCC(=O)N[C@@H](CCCCN)C(=O)N[C@@H](CCC(=O)O)C(=O)N[C@@H](CCC(=O)O)C(=O)N[C@@H](CC(=O)O)C(=O)N[C@@H](Cc1c[nH]c2ccccc12)C(=O)N[C@@H](CCCCN)C(=O)N[C@@H](Cc1c[nH]cn1)C(=O)N[C@@H](CC(N)=O)C(=O)N[C@H](C(=O)N[C@H](C(=O)N[C@@H](CCC(N)=O)C(=O)O)[C@@H](C)O)[C@@H](C)CC)C(C)C)[C@@H](C)CC [Compound 40, N{Epsilon-24}-[(4S)-4-carboxy-4-[[(4S)-4-carboxy-4-[[(4S)-4-carboxy-4-(17-carboxyheptadecanoylamino)butanoyl]amino]butanoyl]amino]butanoyl]-[Aib2,Nle14,Arg18,Lys24,Glu33,Glu34]-hGIP] | < 7.00 | 11.35 | < 7.00 |
| Y[Aib]EGTFISDYSIA[Nle]DKIHQQDFVK([AEEA-AEEA-γGlu-C18 diacid])WLLAQKGKEEDWKHNITQ [Compound 35, N{Epsilon-24}-[2-[2-[2-[[2-[2-[2-[[(4S)-4-carboxy-4-(17-carboxyheptadecanoylamino)butanoyl]amino]ethoxy]ethoxy]acetyl]amino]ethoxy]ethoxy]acetyl]-[Aib2,Nle14,Lys24,Glu33,Glu34]-hGIP] | < 7.00 | 11.26 | < 7.00 |
